{"source": "ChEMBL document CHEMBL1132137", "about": "“Synthesis and antiviral activity of some N-benzenesulphonylbenzimidazoles” (Bioorg Med Chem Lett, 1999)", "key": {"[1]": {"test_system": "Mumps virus", "test": "Antiviral activity against the Mumps virus (RNA virus) at a concentration of 2 ug/mL was determined as total cell infectious dose 50/mL (TCID50) by viral yield assay", "type": "functional, Mumps orthorubulavirus"}, "[2]": {"test_system": "Coxsackievirus B5", "test": "Inhibitory concentration required to reduce viral plaque formation of Coxsackie B5 virus by 50%", "type": "functional, organism-based", "details": "Enterovirus B"}, "[3]": {"test_system": "Vaccinia virus", "test": "Antiviral activity against the Vaccinia virus (DNA virus) at a concentration of 2 ug/mL was determined as Plaque forming unit/mL(PFU) by plaque assay", "type": "functional, Orthopoxvirus vaccinia"}, "[4]": {"test_system": "Vero", "test": "(§1) Cytotoxicity on the vero cell culture infected with mL and was determined as reduction in protein content by the Lowry test", "type": "functional, Chlorocebus sabaeus"}, "[5]": {"test_system": "Human alphaherpesvirus 1", "test": "Antiviral activity against the Herpes simplex 1 virus (DNA virus) at a concentration of 2 ug/mL was determined as Plaque forming unit/mL(PFU) by plaque assay", "type": "functional"}, "[6]": {"test_system": "Vero", "test": "Cytotoxicity on the vero cell culture infected with Coxsackie B5 virus at a concentration of 2 ug/mL was determined as cell viability by the MTT test", "type": "functional, Chlorocebus sabaeus"}, "[7]": {"test_system": "Coxsackievirus B5", "test": "Antiviral activity against the Coxsackie B5 virus (RNA virus) at a concentration of 2 ug/mL was determined as total cell infectious dose 50/mL (TCID50) by viral yield assay", "type": "functional"}, "[8]": {"test_system": "Vero", "test": "Cytotoxicity on the vero cell culture infected with Coxsackie B5 virus at a concentration of 1 ug/mL was determined as cell viability by the MTT test", "type": "functional, Chlorocebus sabaeus"}, "[9]": {"test_system": "Vero", "test": "as §1", "type": "functional, Chlorocebus sabaeus", "remark": "listed apart in the source"}, "[10]": {"test_system": "Vero", "test": "as §1", "type": "functional, Chlorocebus sabaeus", "set-up": "unit not given here"}, "[11]": {"test_system": "Vero", "test": "as §1", "type": "functional, Chlorocebus sabaeus", "set-up": "unit not given here", "remark": "listed apart in the source"}, "[12]": {"test_system": "Vero", "test": "Cytotoxicity on the vero cell culture infected with Coxsackie B5 virus at a concentration of 3 ug/mL was determined as cell viability by the MTT test", "type": "functional, Chlorocebus sabaeus"}, "[13]": {"test_system": "Vero", "test": "Cytotoxicity on the vero cell culture infected with Coxsackie B5 virus at a concentration of 5 ug/mL was determined as cell viability by the MTT test", "type": "functional, Chlorocebus sabaeus"}, "[14]": {"test_system": "Coxsackievirus B5", "test": "Antiviral activity against the Coxsackie B5 virus (RNA virus) at a concentration of 3 ug/mL was determined as total cell infectious dose 50/mL (TCID50) by viral yield assay", "type": "functional"}, "[15]": {"test_system": "Vero", "test": "Cytotoxicity on the vero cell culture infected with Coxsackie B5 virus at a concentration of 4 ug/mL was determined as cell viability by the MTT test", "type": "functional, Chlorocebus sabaeus"}, "[16]": {"test_system": "Vero", "test": "as §1", "type": "functional, Chlorocebus sabaeus", "remark": "listed apart in the source"}, "[17]": {"test_system": "Coxsackievirus B5", "test": "Antiviral activity against the Coxsackie B5 virus (RNA virus) at a concentration of 4 ug/mL was determined as total cell infectious dose 50/mL (TCID50) by viral yield assay", "type": "functional"}, "[18]": {"test_system": "Human alphaherpesvirus 1", "test": "Antiviral activity against the Herpes simplex 1 virus (DNA virus) at a concentration of 5 ug/mL was determined as Plaque forming unit/mL(PFU) by plaque assay", "type": "functional"}, "[19]": {"test_system": "Mumps virus", "test": "Antiviral activity against the Mumps virus (RNA virus) at a concentration of 5 ug/mL was determined as total cell infectious dose 50/mL (TCID50) by viral yield assay", "type": "functional, Mumps orthorubulavirus"}, "[20]": {"test_system": "Coxsackievirus B5", "test": "Antiviral activity against the Coxsackie B5 virus (RNA virus) at a concentration of 5 ug/mL was determined as total cell infectious dose 50/mL (TCID50) by viral yield assay", "type": "functional"}, "[21]": {"test_system": "Vero", "test": "Cytotoxicity on the vero cell culture infected with Coxsackie B5 virus at a concentration of 10 ug/mL was determined as cell viability by the MTT test", "type": "functional, Chlorocebus sabaeus"}, "[22]": {"test_system": "Vaccinia virus", "test": "Antiviral activity against the Vaccinia virus (DNA virus) at a concentration of 5 ug/mL was determined as Plaque forming unit/mL(PFU) by plaque assay", "type": "functional, Orthopoxvirus vaccinia"}, "[23]": {"test_system": "Vero", "test": "Cytotoxicity on the vero cell culture infected with Coxsackie B5 virus at a concentration of 80 ug/mL was determined as cell viability by the MTT test", "type": "functional, Chlorocebus sabaeus"}, "[24]": {"test_system": "Coxsackievirus B5", "test": "Antiviral activity against the Coxsackie B5 virus (RNA virus) at a concentration of 80 ug/mL was determined as total cell infectious dose 50/mL (TCID50) by viral yield assay", "type": "functional"}}, "note": "Where “and” joins values, the source holds several entries; their conditions need not be identical. Equal values may be shown once."}
{"compound": "O=[N+]([O-])c1ccccc1S(=O)(=O)n1c(CCc2ccccn2)nc2cc(Cl)c(Cl)cc21", "values": [{"measurement": "TCID50", "setting": "[1]", "value": 100000, "unit": "mL⁻¹"}, {"measurement": "IC50", "setting": "[2]", "value": 8, "unit": "µg/mL"}, {"measurement": "Activity", "setting": "[3]", "value": 120, "unit": "pfu/ml"}, {"measurement": "Cytotoxicity", "setting": "[4]", "value": 840.5}, {"measurement": "Activity", "setting": "[5]", "value": 4700000, "unit": "pfu/ml"}, {"measurement": "Cell viability", "setting": "[6]", "value": 1.36}, {"measurement": "TCID50", "setting": "[7]", "value": 1000000, "unit": "mL⁻¹"}, {"measurement": "Cell viability", "setting": "[8]", "value": 1.49}, {"measurement": "Cytotoxicity", "setting": "[9]", "value": 784.8}]}
{"compound": "O=[N+]([O-])c1ccc(S(=O)(=O)n2c(Sc3ncccc3[N+](=O)[O-])nc3ccccc32)cc1", "values": [{"measurement": "Cytotoxicity", "setting": "[10]", "value": 508.9}, {"measurement": "Cytotoxicity", "setting": "[11]", "value": 678.6}, {"measurement": "Cell viability", "setting": "[12]", "value": 1.36}, {"measurement": "Cell viability", "setting": "[13]", "value": 0.8}, {"measurement": "TCID50", "setting": "[14]", "value": 10000000, "unit": "mL⁻¹"}]}
{"compound": "O=[N+]([O-])c1ccc(S(=O)(=O)n2c(SCc3ccccn3)nc3ccccc32)cc1", "values": [{"measurement": "Cell viability", "setting": "[15]", "value": 1.12}, {"measurement": "Cytotoxicity", "setting": "[16]", "value": 734.2}, {"measurement": "Cell viability", "setting": "[6]", "value": 1.44}, {"measurement": "Cytotoxicity", "setting": "[9]", "value": 744.3}, {"measurement": "TCID50", "setting": "[17]", "value": 1000000, "unit": "mL⁻¹"}]}
{"compound": "O=[N+]([O-])c1ccc(S(=O)(=O)n2c(Sc3ncccc3[N+](=O)[O-])nc3cc(Cl)c(Cl)cc32)cc1", "values": [{"measurement": "Cytotoxicity", "setting": "[10]", "value": 456.1}, {"measurement": "Cytotoxicity", "setting": "[11]", "value": 595.6}, {"measurement": "Cell viability", "setting": "[12]", "value": 1.27}, {"measurement": "Cell viability", "setting": "[13]", "value": 0.79}, {"measurement": "TCID50", "setting": "[14]", "value": 1000000, "unit": "mL⁻¹"}]}
{"compound": "O=[N+]([O-])c1ccccc1S(=O)(=O)n1c(CCc2ccccn2)nc2ccccc21", "values": [{"measurement": "Cytotoxicity", "setting": "[10]", "value": 759.5}, {"measurement": "Activity", "setting": "[18]", "value": 1800000, "unit": "pfu/ml"}, {"measurement": "IC50", "setting": "[2]", "value": 5, "unit": "µg/mL"}, {"measurement": "TCID50", "setting": "[19]", "value": 10000, "unit": "mL⁻¹"}, {"measurement": "TCID50", "setting": "[20]", "value": 100000, "unit": "mL⁻¹"}, {"measurement": "Cell viability", "setting": "[21]", "value": "0.82 and 1.23"}, {"measurement": "Activity", "setting": "[22]", "value": 750, "unit": "pfu/ml"}, {"measurement": "Cytotoxicity", "setting": "[9]", "value": 627.8}]}
{"compound": "O=[N+]([O-])c1ccc(S(=O)(=O)n2c(SCc3ccccn3)nc3cc(Cl)c(Cl)cc32)cc1", "values": [{"measurement": "Cytotoxicity", "setting": "[10]", "value": 540.8}, {"measurement": "Cytotoxicity", "setting": "[11]", "value": 663.4}, {"measurement": "Cell viability", "setting": "[12]", "value": 1.23}, {"measurement": "Cell viability", "setting": "[13]", "value": 0.89}, {"measurement": "TCID50", "setting": "[14]", "value": 1000000, "unit": "mL⁻¹"}]}
{"compound": "O=[N+]([O-])c1ccccc1S(=O)(=O)n1c(SCc2ccccn2)nc2ccccc21", "values": [{"measurement": "Cytotoxicity", "setting": "[4]", "value": 774.7}, {"measurement": "Cell viability", "setting": "[6]", "value": 1.02}, {"measurement": "TCID50", "setting": "[7]", "value": 10000000, "unit": "mL⁻¹"}, {"measurement": "Cell viability", "setting": "[8]", "value": 1.42}, {"measurement": "Cytotoxicity", "setting": "[9]", "value": 724.1}]}
{"compound": "O=[N+]([O-])c1ccccc1S(=O)(=O)n1c(SCc2ccccn2)nc2cc(Cl)c(Cl)cc21", "values": [{"measurement": "Cytotoxicity", "setting": "[10]", "value": 495.8}, {"measurement": "Cytotoxicity", "setting": "[11]", "value": 740.1}, {"measurement": "Cell viability", "setting": "[12]", "value": 1.12}, {"measurement": "Cell viability", "setting": "[13]", "value": 0.83}, {"measurement": "TCID50", "setting": "[14]", "value": 10000000, "unit": "mL⁻¹"}]}
{"compound": "N=C(N)N", "note": "[GUANIDINE]", "values": [{"measurement": "Cell viability", "setting": "[23]", "value": 1.41}, {"measurement": "TCID50", "setting": "[24]", "value": 10000, "unit": "mL⁻¹"}, {"measurement": "Cytotoxicity", "setting": "[11]", "value": 839.4}, {"measurement": "Cell viability", "setting": "[12]", "value": 1.45}, {"measurement": "TCID50", "setting": "[14]", "value": 1000000, "unit": "mL⁻¹"}, {"measurement": "Cytotoxicity", "setting": "[9]", "value": 825.7}]}
